These results are taken from patent publication US20170021014A1, “VACCINE ADJUVANTS FOR CYTOMEGALOVIRUS PREVENTION AND TREATMENT” (THE JOHNS HOPKINS UNIVERSITY, priority 2015, published 2017).

For test [1], the system named is NOD2 mRNA. Kind of test: qRT-PCR of NOD2 mRNA in HFFs. The class given is cell-based, Human. As to conditions: for NOD2 induction by MDP: HCMV-infected, 36 hpi. The method, then: (§1) Total RNA was isolated from cells using RNAeasy Mini kit (Qiagen, Georgetown, Md.) according to manufacturer's instructions. RevertAid first strand cDNA synthesis kit (Fermentas life sciences, Cromwell Park, Md.) was used to synthesize first strand cDNA from total RNA using oligo-dT primers. Negative reverse-transcriptase (−RT) reactions were included to ensure the specificity of qRT-PCR reactions. Synthesis of first strand cDNA from mRNA template was carried out at 42° C. for 1 h. Quantitative RT-PCR was performed using specific primers and SYBR green (Fermentas life science) with two-step cycling protocol (95° C. for 15 s, 60° C. for 1 min). All reactions were performed in triplicates and GAPDH was used as internal control. The expression level of the tested genes was normalized to the expression of GAPDH.
On the technique in general: In qPCR the cycle at which signal appears reflects the starting amount.

Test [2] has as its system IFN-β mRNA. Kind of test: qRT-PCR of IFN-β mRNA in HFFs. The class given is cell-based, Human. The method, then:
as §1

Test [3] deals with pp28-luciferase Towne strain. The test can be described thus: Virus titration of first cycle supernatants by plaque assay. The class given is cell-based, human cytomegalovirus. As to conditions: MDP-pretreated cells, plaques at 8 days. As to the method:
Human Foreskin Fibroblasts (HFFs) passage 12-16 (ATCC, CRL-2088™) were grown in Dulbecco's Modified Eagle Medium (DMEM) containing 10% fetal bovine serum (FBS) (Gibco, Carlsbad, Calif.) in a 5% CO2 incubator at 37° C. The generation of NOD2-KD HFFs (HFF-shNOD2) and control cells (HFF-GIPZ) was reported. One day prior to infection or treatment, 8×10^4 cells were seeded into each well of 12-well tissue culture plates. Multiplicities of infection were specified for each experiment. The Towne HCMV strain was obtained from ATCC (VR-977). The pp28-luciferase Towne strain which expresses luciferase under the control of the pp28 late promoter has been described. Luciferase activity was measured at 72 or 96 hours post infection (hpi) using the Glomax-Multi+ Detection System (Promega, Madison, Wis.). In second cycle replication assays cell free supernatants from HFFs infected with pp28-luciferase Towne were collected 4 days post completion of first replication cycle (5-10% of total volume/well), and used for infection of fresh HFFs seeded into 12-well plates. […] Supernatants from the first cycle were also used to measure virus titer in 12-well plates and plaques were counted at day 8 post infection. […] The Johns Hopkins School of Medicine Office of Human Subject Research Institutional Review Board (IRB-X) determined that the research qualified for an exemption.

Test [4] concerns secreted IFN-β. The test can be described thus: IFN-β specific ELISA of supernatants. The settings on record: MDP pretreatment 18 or 72 h, MOI 1, 24 h. The class given is cell-based, Human. As to the method:
The effect of MDP pretreatment on levels of secreted IFN-β in supernatants from non-infected or HCMV-infected HFFs was measured by IFN-β specific ELISA kit (PBL Assay Science, Piscataway, N.J.).

The subject of test [5] is TANK-binding kinase (TBK1). The test can be described thus: Western blot of NOD2 downstream signaling proteins. The class given is cell-based, Human. As to conditions: HCMV-infected, MOI 0.1, MDP treatment, 36 hpi. As to the method:
Cell lysates containing equivalent amount of proteins were mixed with an equal volume of sample buffer (125 mM Tris-HCL, pH 6.8, 4% SDS, 20% glycerol and 5% β-mercaptoethanol) and boiled at 100° C. for 10 min. Denatured proteins were resolved in Tris-glycine polyacrylamide gels (10-12%) and transferred to polyvinylidine difluoride (PVDF) membranes (Bio-Rad Laboratories, Hercules, Calif.) by electroblotting. Membranes were incubated in blocking solution [5% w/v non-fat dry milk and 0.1% Tween-20 in PBS (PBST)] for 1 h, washed with PBST, and incubated with antibody at 4° C. overnight. Membranes were washed with PBST and incubated with horseradish peroxidase-conjugated secondary antibodies in PBST for 1 h at room temperature. Following washing with PBST, protein bands were visualized by chemiluminescence using SuperSignal West Dura and Pico reagents (Pierce Chemical, Rockford, Ill.). Antibodies for HCMV proteins were used at 1:2000 and included: mouse monoclonal anti-HCMV IE1 & IE2 (MAB810, Millipore, Billerica, Mass.), mouse monoclonal anti-HCMV UL83 (pp65, Vector Laboratories Inc., Burlingame, Calif.), and mouse monoclonal anti-pp52 (UL44, Santa Cruz Biotechnology, Santa Cruz, Calif.). […]

Test [6] concerns clinical isolate of HCMV. The test can be described thus: Immunofluorescence staining for HCMV IE1/2. The class given is cell-based, human cytomegalovirus. The settings on record: GIPZ HFFs, MDP pretreatment 72 h, infected 24 h, MOI 1. As to the method:
GIPZ control and shIFN-β HFFs were seeded into 96-well plate (1×10^4 cells/well) and pretreated with MDP (10 μg/mL) for 72 h. Cells were then infected with a clinical isolate of HCMV at MOI 1. Twenty-four hours after infection, cells were fixed with methanol/acetone (1:1) at −20° C. for 10 min. Cells were then blocked with 7.5% BSA for 30 min. and incubated for 1 h with anti-human CMV IE1&2 antibody (MAB810) (1:500 in 0.5% BSA). After 3 washes with PBS, cells were incubated with FITC-anti mouse antibody (F8521, Sigma, 1:500, in 0.5% BSA) for 1 h. Then cells were washed 3 times with PBS and counterstained with propidium iodide (Invitrogen) for nuclear staining. Images were taken using Nikon Eclipse TS100 microscope.

As to `CC(=O)N[C@H]1C(O)O[C@H](CO)[C@@H](O)[C@@H]1O[C@H](C)C(=O)N[C@@H](C)C(=O)N[C@H](CCC(=O)O)C(N)=O` (mixture of isomers) [MDP, Muramyl dipeptide], the “NOD2 induction by MDP” value was 6.5 fold in test [1] (MOI 0.1, MDP after infection) and 2.5 fold in test [1] (MOI 1, MDP after infection). Moreover, in test [1] (MDP pretreatment 72 h then HCMV Towne MOI 1 for 24 h (infection only 50-fold)), the “NOD2 mRNA induction” value was 265 fold. Besides, the “induction of NOD2 mRNA” value in test [1] (non-infected HFFs, MDP 10 μg/mL, 36 h) is recorded as 4 fold; in test [1] (non-infected cells, 72 h MDP treatment then 24 h medium) it was 3 fold. The “increase in IFN-β mRNA” value in test [2] (HCMV-infected, MDP treatment, 4 hpi) stood at 2 fold. In addition, the “induction of IFN-β mRNA” value in test [2] (MDP after infection at MOI 0.1, 36 hpi (infection only 15-fold)) is listed as 170 fold; in test [2] (MDP after infection at MOI 1, 36 hpi (infection only 300-fold)), 800 fold. In addition, in test [2] (MDP alone, compared to non-infected cells, 36 h), the IFN-β expression induction amounted to 4 fold. In addition, the “IFN-β mRNA” value is given as “significant induction” in test [2] (MDP pretreatment 72 h then HCMV MOI 1 for 24 h) and “did not result in IFN-β induction” in test [2] (non-infected HFFs, MDP pretreatment 72 h). Further, in test [3], the “reduction in virus titer” value stood at 6 fold. Moreover, in test [4], the “secreted IFN-β” value is “increased with the duration of MDP-pretreatment”. In test [5], the “phosphorylation of TBK1” value was “increased phosphorylation”. The “nuclear IE1/2 expression” value in test [6] is reported as “reduced IE1/2 expression”.
